Values after ≈ are worked out from the molar mass of the structure shown.

One series can be described thus: Hemolytic assay. It counts as cell-based. Conditions: human, 37°C, read-out: Hemolysis of hRBCs. On the procedure: Human blood from a healthy individual was collected in tubes containing EDTA as anti-coagulant. The erythrocytes were harvested by centrifugation for 10 min at 2000 rpm and 20°C, washed three times in PBS. To the pellet, PBS was added to yield a 10% (v/v) erythrocytes/PBS suspension. The 10% suspension was then diluted 1:10 in PBS. From each suspension, 100 μL was added in triplicate to 100 μL of a different dilution series of test compounds in the same buffer in micro centrifuge tubes. […] The tubes were incubated for 1 h at 37°C and then centrifuged for 10 min at 2000 rpm and 20°C. From the supernatant, 150 μL was transferred to a flat-bottomed microtiter plate (Tarson), and the absorbance was measured spectrophotometrically at 450 nm. The hemolysis percentage was calculated by following equation: %Hemolysis=[(A450oftestcompoundtreatedsample−A450ofbuffertreatedsample)÷(A450of1%TritonX−100treatedsample−A450ofbuffertreatedsample)]×100

Series [1] relates to C. albicans ATCC 90028 (Standard). In words: Disk diffusion assay. Format: cell-based. The settings on record: 20 μg per disk, 48 h. As to the method: (§1) Disk diffusion assay was performed using C. albicans ATCC 90028 (standard), the two clinical isolates, C. albicans D27 (FLC-susceptible), and C. albicans D15.9 (FLC-resistant) for the lead inhibitors 3a and 3b. The C. albicans cells were inoculated into liquid SD medium and grown over night at 37°C. The cells were then centrifuged at 3000 rpm for 5 min, washed three times with PBS and then suspended in PBS again. Approximately, 10^5 cells/mL were inoculated into molten SD agar medium at 42°C and poured into 100-mm-diameter petriplates. Sterilized 4 mm disks of Whatman paper were placed on solid agar and 1, 2, and 4 μL of 3a and 2, 4, and 8 μL of 3b from the stock solution of 10 mg/mL were spotted on the disk. […] The diameter of zone of inhibition (ZOI) was recorded in millimetres after 48 h and was compared with that of control. This experiment was repeated thrice and values were shown in terms of mean ±standard error of mean.
(In general: A growth-free zone around the sample is the usual read-out of agar diffusion tests.)

Series [2] relates to C. albicans D15.9 (FLC-resistant). Nature of the series: Disk diffusion assay. It counts as cell-based. Conditions: 48 h. On the procedure:
as §1

The test system of series [3] is C. albicans D27 (FLC-susceptible). Nature of the series: Disk diffusion assay. Format: cell-based. Conditions: Candida albicans; 20 μg per disk, 48 h; read-out: Zone of Inhibition. On the procedure: as §1
Series [4] deals with C. albicans D31 (FLC-sensitive clinical isolate). Nature of the series: Broth dilution IC50 determination. Format: cell-based. Conditions: Candida albicans, 24 h; read-out: Anti-Candida Activity (IC50± S.D.) C. albicans D31. On the procedure: (§2) Broth dilution technique was employed to determine the IC50 values of all the synthesized 1,2,3 triazole derivatives (3a-c) against C. albicans ATCC 90028, C. glabrata ATCC 90030, C. tropicalis ATCC 750 and four clinical isolates of C. albicans namely D27, D31, D39 (FLC-sensitive) and D15.9 (FLC-resistant). The strains were maintained on yeast extract:peptone:dextrose ([…]) nutrient agar (2.5%) slants at 4°C. The test compounds were dissolved in DMSO with less than 4% concentration of it in the final test volume. Different concentrations (1000… 7.8 μg/mL) of test compounds in Sabouraud dextrose (SD) broth medium were dispensed into the wells, then inoculated with the test organism with approx. 2.5 × 10^3 cells/mL and incubated at 37°C for 24 h. After incubation period, the optical density was measured at 600 nm by using Thermo Scientific Multiskan Go plate reader. […] All the experiments were done in triplicate at separate times.
A general note: In broth dilution the organism is exposed to a series of concentrations in liquid medium.

A further series relates to C. glabrata ATCC 90030. Nature of the series: Broth dilution IC50 determination. Format: cell-based. Conditions: Nakaseomyces glabratus, ATCC90030, SD broth, 37°C, 24 h, OD 600 nm, read-out: Anti-Candida Activity (IC50± S.D.) C. glabrata ATCC90030. On the procedure: as §2
The subject of series [5] is C. albicans D39 (FLC-sensitive clinical isolate). Nature of the series: Broth dilution IC50 determination. It counts as cell-based. Conditions: Candida albicans, 24 h; read-out: Anti-Candida Activity (IC50± S.D.) C. albicans D39. As to the method:
as §2

The test system of series [6] is C. albicans D27 (FLC-sensitive clinical isolate). Nature of the series: Broth dilution IC50 determination. It counts as cell-based. Conditions: Candida albicans, 24 h; read-out: Anti-Candida Activity (IC50± S.D.) C. albicans D27. As to the method: as §2
The next series has as its system C. albicans ATCC 90028. Nature of the series: Broth dilution IC50 determination. It counts as cell-based. Conditions: Candida albicans, ATCC90028, SD broth, 37°C, 24 h, OD 600 nm, read-out: Anti-Candida Activity (IC50± S.D.) C. albicans ATCC90028. As to the method:
as §2

A further series concerns C. tropicalis ATCC 750. Nature of the series: Broth dilution IC50 determination. It counts as cell-based. The settings on record: Candida tropicalis, ATCC750, SD broth, 37°C, 24 h, OD 600 nm, read-out: Anti-Candida Activity (IC50± S.D.) C. tropicalis ATCC750. On the procedure:
as §2

In the next series the test system is C. albicans. In words: Disk diffusion assay, appearance of zones (strains not distinguished). Format: cell-based. As to the method:
as §1

Series [7] concerns ergosterol biosynthesis. In words: Ergosterol estimation assay. The settings on record: 40 μg/mL of FLC, 16 h.
Series [8] relates to ergosterol biosynthesis. Nature of the series: Ergosterol estimation assay. Conditions: 40 μg/mL of FLC, 16 h. This is another data set of the same source.
Series [9] has as its system C. albicans ATCC 90028, C. albicans D27 (FLC-susceptible) and C. albicans D15.9 (FLC-resistant). In words: Time kill curve study, three strains. Conditions: 40 μg/mL; C. albicans standard and FLC-resistant. Format: cell-based. On the procedure: Time-kill curves were used for testing the fungicidal or fungistatic nature of the lead inhibitors 3a and 3b. The experimental procedure was performed according to the method reported by Wang et al.. C. albicans ATCC 90028, C. albicans D27 (FLC-susceptible) and C. albicans D15.9 (FLC-resistant) strains were used as test organisms. Fluconazole was used as a positive control. Freshly prepared sterile YEPD medium was inoculated by fresh culture (approx. 2×10^3 cells) of test organisms in different conical flasks. The cells were exposed to the test compounds at 2MIC, MIC and MIC/2 values, separately. All the conical flasks having different sets of test compounds and concentrations were incubated at 37°C and 160 rpm. At predetermined time points (0, 4, 12, 24, and 48 h after incubation with agitation at 37°C), a 100-μL aliquot was removed from every solution and appropriately diluted in sterile water. A 100-μl aliquot from each dilution was spread over the YEPD agar plate. Colony counts were determined after incubation at 37°C for 24 h. All the time-kill curve experiments were conducted in duplicate and mean colony count data (log10 CFU/mL) were plotted as a function of time for each strain.

For series [10], the system named is C. albicans ATCC 90028 (Standard). In words: Growth assay (growth curve). Conditions: 40 μg/mL of FLC. It counts as cell-based. On the procedure: (§3) The C. albicans cells were freshly revived by subculture on the SD agar plate. A loopful of inoculum was introduced into the SD broth and cells were grown for 16 h at 37°C before use. Approximately 2×10^3 cells/mL were then inoculated into the freshly prepared 50 mL sterile SD medium. […] At predetermined time periods (0, 2, 4, 6, 8, 10, 12, 14, 16, 18, 20 22, and 24 after incubation with agitation at 37°C), 1 mL aliquot of each sample was removed from the conical flask and growth was measured tubidometrically at 600 nm using Thermo Multiskan spectrophotometer. Optical density was recorded for each concentration against time (h).

The test system of series [11] is C. albicans D15.9 (FLC-resistant). In words: Growth assay (growth curve). Format: cell-based. The settings on record: 40 μg/mL of FLC. As to the method: as §3
The test system of series [12] is C. albicans D27 (FLC-susceptible). Nature of the series: Growth assay (growth curve). It counts as cell-based. Conditions: 40 μg/mL of FLC. On the procedure: as §3
In series [13] the test system is C. albicans D15.9 (FLC-resistant clinical isolate). Nature of the series: Broth dilution IC50 / MIC determination. Conditions: Candida albicans; for IC50: 24 h, read-out: Anti-Candida Activity (IC50± S.D.) C. albicans D15.9. Format: cell-based. As to the method: as §2
Series [14] is described as follows: Cell proliferation assay (cytotoxicity). It counts as cell-based. The settings on record: monkey, Vero cells (monkey kidney fibroblasts), positive control. As to the method:
The in vitro cytotoxicity of compounds 3a and 3b to mammalian cells was also determined. The assay was performed in 96-well tissue culture-treated plates as described earlier. Vero cells (monkey kidney fibroblasts) were seeded to the wells of 96-well plate at a density of 25,000 cells/well and incubated for 24 h. Samples at different concentrations were added and plates were again incubated for 48 h. The number of viable cells was determined by Neutral Red assay. IC50 values were obtained from dose response curves. Doxorubicin was used as a positive control for cytotoxicity.

The target in series [15] is T1, plasma membrane H+ ATPase (Candida albicans, UniProt P28877).
T1 construct: endogenous in cells; host or cells: C. albicans ATCC 90028; clinical isolates C. albicans D27 (FLC-susceptible) and D15.9 (FLC-resistant); mid-log phase whole cells
In words: cell-based. Also on record: species or system C. albicans D15.9 (FLC-resistant). As to the method: (§4) The proton pumping activity of C. albicans was determined by monitoring acidification of external medium by measuring pH as describe earlier. In brief, the mid-log phase cells were harvested from SD medium by centrifugation at 3000 rpm for 15 min which is followed by three washings with phosphate buffer saline (PBS). A solution containing 0.1 M KCl and 0.1 mM CaCl2 in distilled water was prepared. Compounds 3a and 3b at the concentrations of 50 and 100 μg/mL were separately added in this solution. […] Initial pH was adjusted to 7.0 using 0.01 M HCl/NaOH. Approximately 0.2 g of cells were suspended in each set of solution. Suspension was kept in a double-jacketed glass container with constant stirring. Again, the pH of suspension was maintained as 7.0 for 1 min by using 0.01 N NaOH. The rate of H^+ extrusion was then monitored and calculated from the volume of 0.01 N NaOH consumed per min per mg weight of cells. Glucose has been reported as the stimulator of proton extrusion pump. Therefore above experiment was also repeated in the presence of 5 mM of glucose.

In series [16] the target is T1, plasma membrane H+ ATPase. Nature of the series: Proton extrusion measurement (H+ efflux). Conditions: glucose 5mM alone. It counts as cell-based, C. albicans ATCC 90028. As to the method: as §4
In series [17] the target is T1, plasma membrane H+ ATPase. Nature of the series: Proton extrusion measurement (H+ efflux). It counts as cell-based, C. albicans D27 (FLC-susceptible). On the procedure:
as §4

T1 sequence (P28877 whole entry): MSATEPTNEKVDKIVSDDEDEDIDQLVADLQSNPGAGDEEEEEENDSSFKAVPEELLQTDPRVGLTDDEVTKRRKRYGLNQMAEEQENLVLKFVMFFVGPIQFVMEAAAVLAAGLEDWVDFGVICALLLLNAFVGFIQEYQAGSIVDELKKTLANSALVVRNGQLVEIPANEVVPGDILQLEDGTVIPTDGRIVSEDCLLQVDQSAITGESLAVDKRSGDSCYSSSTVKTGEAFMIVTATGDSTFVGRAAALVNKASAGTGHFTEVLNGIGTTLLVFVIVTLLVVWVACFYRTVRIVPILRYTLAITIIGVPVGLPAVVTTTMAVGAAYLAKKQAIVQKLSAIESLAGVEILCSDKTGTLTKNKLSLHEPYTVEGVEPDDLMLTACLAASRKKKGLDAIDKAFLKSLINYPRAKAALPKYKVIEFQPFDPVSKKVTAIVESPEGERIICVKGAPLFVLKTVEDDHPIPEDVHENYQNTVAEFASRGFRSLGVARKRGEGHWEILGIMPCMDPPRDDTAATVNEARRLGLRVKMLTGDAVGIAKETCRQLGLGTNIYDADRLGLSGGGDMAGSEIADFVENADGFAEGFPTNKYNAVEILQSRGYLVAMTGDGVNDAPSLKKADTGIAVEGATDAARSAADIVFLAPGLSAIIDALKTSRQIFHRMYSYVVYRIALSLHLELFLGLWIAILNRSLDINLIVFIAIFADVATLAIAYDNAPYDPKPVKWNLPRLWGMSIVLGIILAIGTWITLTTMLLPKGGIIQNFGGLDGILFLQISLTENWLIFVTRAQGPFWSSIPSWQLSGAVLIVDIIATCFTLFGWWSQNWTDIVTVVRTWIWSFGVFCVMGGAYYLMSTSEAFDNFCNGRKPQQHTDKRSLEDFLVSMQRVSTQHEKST

Broadly, the zone of inhibition is the size of the clear area around the sample on an inoculated plate. In general, IC50 refers to the point on the concentration scale where inhibition reaches its midpoint. A word on the MIC: it is the least concentration at which growth counts as inhibited. With `OC(Cn1cncn1)(Cn1cncn1)c1ccc(F)cc1F` [FLC, Fluconazole, reference compound], the hemolysis at 1 h, 500 μg/mL in “Hemolytic assay” was 68.6%. The “Zone of Inhibition” value stood at 26± 1.02 mm in series [1] and 24± 0.74 mm in series [2] (20 μg per disk). Also, the zone of inhibition at 20 µg/disc was 26 mm in [1] (Candida albicans, ATCC90028); 24 mm in series [2] (Candida albicans); 27 ± 1.35 mm in series [3]. Besides, the concentration for half-maximal inhibition (IC50) in series [4] is below 7.5 µg/mL; in the series with C. glabrata ATCC 90030, 7.81 ± 0.88 µg/mL (≈ 25.5 µM); in series [5] it was below 7.5 µg/mL; in series [6], below 7.5 µg/mL; with C. albicans ATCC 90028, 15.6 ± 0.65 µg/mL (≈ 51 µM); in the series with C. tropicalis ATCC 750, 8.55 ± 1.59 µg/mL (≈ 27.9 µM). In addition, the IC50 in series [13] is above 1000 µg/mL. In the series with C. albicans, the “Appearance of zone around disks (clear = fungicidal nature, turbid = fungistatic nature)” value is “turbid”. Also, the results for the “Decrease in ergosterol content” value in the series with ergosterol biosynthesis [7] and with ergosterol biosynthesis [8] were 100% and 96%, respectively. In addition, the “CFU/mL, treated versus untreated cells” value in series [9] was “no significant difference in CFU/mL”. Besides, the entries for the “Time by which lag phase was over” value in series [10], in series [11] and in series [12] were 16 h, 16 h and 20 h, respectively. The same compound had an MIC in series [13] above 1 µg/mL.
`COc1cccc2c1C(=O)c1c(O)c3c(c(O)c1C2=O)C[C@@](O)(C(=O)CO)C[C@@H]3O[C@H]1C[C@H](N)[C@H](O)[C@H](C)O1` [Doxorubicin] registered a concentration for half-maximal inhibition (IC50) at 48 h in series [14] above 5 µg/mL.
Take `c1ccc(Cn2cc(COc3cccc4ccccc34)nn2)cc1` [Compound 3c, 1-Benzyl-4-((naphthalen-1-yloxy)methyl)-1H-1,2,3-triazole]: the IC50 in [4] was determined as 119 ± 2.94 µg/mL (≈ 377 µM); with C. glabrata ATCC 90030, 107 ± 1.41 µg/mL (≈ 339 µM); in series [5], 62.2 ± 1.07 µg/mL (≈ 197 µM); in [6], 43.7 ± 1.18 µg/mL (≈ 139 µM); in the series on C. albicans ATCC 90028 it was 91.2 ± 0.76 µg/mL (≈ 289 µM); in the series with C. tropicalis ATCC 750 it was 38.2 ± 0.83 µg/mL (≈ 121 µM). The 50% inhibitory concentration (IC50) in series [13] was 66.9 ± 1.84 µg/mL (≈ 212 µM).
As for `OC[C@H]1OC(O)[C@H](O)[C@@H](O)[C@@H]1O` (stereo partly shown) [Glucose, reference compound], the “Increase of the rate of H+ extrusion” value is 36% in series [15] (5 mM of glucose) and 24% in [17] (5 mM of glucose). In addition, the “Range of relative H+ efflux rate” value in series [15] (glucose 5mM alone) was 43.33 ± 2.1 ×10^−6 mol min^−1 mg cells^−1; in [16], 54.95 ± 2.7 ×10^−6 mol min^−1 mg cells^−1; in series [17] (glucose 5mM alone), 40.00 ± 2.0 ×10^−6 mol min^−1 mg cells^−1.

The record behind these values is publication PMC5400251, “Effect of quinoline based 1,2,3-triazole and its structural analogues on growth and virulence attributes of Candida albicans” (PLoS ONE, 2017).
